Measurements taken from patent publication US6410054B1, “Immediate release eplerenone compositions” (G. D. Searle & Co., priority 1998, dated 2002).
Like-named read-outs stand apart in the source and are kept apart here.

Tests used:
Format in all cases: in vivo, humans
[1] = ADME study of [14C]eplerenone oral solution: excretion in urine, feces, breath
Method: An open-label, single dose study was employed to evaluate the absorption, distribution, metabolism and elimination profile of a single 100 mg dose of an oral solution of eplerenone.
The study employed eight healthy male humans. Each subject received a single 100 mg oral dose of a solution of [^14C]eplerenone (specific activity 0.75 μCi/mg). Plasma, saliva, breath, urine and fecal samples were collected at predetermined intervals and analyzed for sample radioactivity and the concentration of eplerenone and its open lactone ring form. Safety was determined on the basis of laboratory tests, vital signs, and the occurrence and types of adverse events.
The subjects, who underwent an overnight food fast prior to administration of the dose, received at 0800 hours a single 100 mg oral dose of an aqueous oral solution of radiolabeled eplerenone reconstituted in 80 mL of an apple juice/hydroxypropyl-β-cyclodextrin mixture. The subjects swallowed about 200 mL of water one, two and three hours post dosing.
Blood samples were collected at −0.5 (predose), 0.5, 1, 1.5, 2, 2.5, 3, 4, 6, 8, 12, 16, 24, 36, 48, 72 and 96 hours post dose. […] Individual fecal samples were collected beginning immediately after dosing and continuing through 0800 hours on day 8. In addition, one predose fecal sample was provided. Saliva samples were taken at 0.5 hour predose and at 0.5, 1, 2, 4, 6, 12, and 24 hours postdose. Breath samples were taken at 0.5 hour predose and at 1, 2, 3, 4, 6, 8, 12, 24, 36, 48 and 72 hours postdose.

[2] = Effect of food study: plasma pharmacokinetics fasted vs high-fat breakfast; settings: for concentration at 0.5 h / concentration at 1 h / concentration at 2 h / concentration at 3 h / concentration at 4 h / concentration at 6 h / concentration at 8 h / concentration at 28 h / concentration at 48 h / concentration at 72 h / concentration at 12 h / concentration at 16 h / concentration at 24 h / concentration at 32 h / concentration at -0.5 h: male, human, plasma, oral, 100 mg, 100 mg eplerenone capsule; for concentration at 0.5 h: 0.5 hours after dosing; for concentration at 1 h: 1.0 hours after dosing; for concentration at 2 h: 2.0 hours after dosing; for concentration at 3 h: 3.0 hours after dosing; for concentration at 4 h: 4.0 hours after dosing; for concentration at 6 h: 6.0 hours after dosing; for concentration at 8 h: 8.0 hours after dosing; for concentration at 28 h: 28.0 hours after dosing; for concentration at 48 h: 48.0 hours after dosing; for concentration at 72 h: 72.0 hours after dosing; for concentration at 12 h / concentration at 16 h / concentration at 24 h / concentration at 32 h: […] after dosing; for concentration at -0.5 h: −0.5 hours after dosing
Method: An open-label randomized, cross-over study was employed to evaluate the pharmacokinetic profiles of eplerenone under fasted and fed conditions, and the safety and tolerability of eplerenone. Safety was assessed based on adverse events, vital signs and clinical laboratory tests. Twelve healthy male subjects were randomized to receive a single 100 mg dose of eplerenone on days 1 and 8 under (i) fasted conditions, or (ii) immediately following a high-fat breakfast. The subjects were orally administered (dosed) a single 100 mg dose of eplerenone in the form of the capsule described in Example 7, together with approximately 200 to 240 mL of water at 0800 hours on days 1 and 8. Subjects randomized to receive a high-fat breakfast were to completely ingest the meal within 20 minutes prior to dosing. The high-fat meal contained approximately 33 g protein, 75 g fat, 58 g carbohydrates and 1000 calories. […] All adverse events were mild in severity.

[3] = Multiple dose study: plasma pharmacokinetics and urinary excretion; settings: for AUC / Cmax / Tmax / half-life: male, human, plasma, oral; for half-life: read-out: T½ (converted)
Method: Multiple oral dose tolerability and the pharmacokinetics of several dosages of eplerenone were evaluated in a double-blind, randomized, placebo-controlled, rising oral dose, sequential panel study of 40 healthy male subjects (five groups of eight subjects). The study medication was administered in […] sequential dose panels, with each panel including eplerenone, spironolactone and placebo. […] The 100 mg and 200 mg dose capsules corresponded to those described in Examples 7 and 8, respectively. Following a 48-hour interval, the study drug was administered once a day for 11 days. Antialdosterone activity was determined following a fludrocortisone challenge on Days 12-13.

renin and aldosterone = assay: Treatment of hypertension study: plasma renin and serum aldosterone
Method: The safety and efficacy of a range of doses of eplerenone in the treatment of hypertension relative to placebo were evaluated in a multi-center, randomized, double-blind, placebo-lead-in, parallel group study. […] Four hundred and seventeen patients were randomized to one of eight treatments: (i) placebo BID; […] (iv) eplerenone 400 mg QD; (v) eplerenone 25 mg BID; […] The primary efficacy variable was the change in cuff diastolic blood pressure (ADBP; sitting) measured at trough plasma levels after eight weeks of double blind treatment. The secondary variables measured were the change in trough cuff systolic blood pressure (ΔSBP; sitting), change in 24 hour mean diastolic blood pressure (ΔDBP), and change in 24 hour mean systolic blood pressure (ΔSBP). […] Changes in plasma renin and serum aldosterone after eight weeks of dosing were also analyzed as secondary measures of efficacy.

[4] = 100 mg [14C]eplerenone oral solution
[5] = 100 mg [14C]eplerenone oral solution, mean
[6] = 100 mg, eplerenone 100 mg Dose, Multiple Dose
[7] = 100 mg, eplerenone 100 mg Dose, Single Dose
[8] = 300 mg, eplerenone 300 mg Dose, Multiple Dose
[9] = 300 mg, eplerenone 300 mg Dose, Single Dose
[10] = 1000 mg, eplerenone 1000 mg Dose, Multiple Dose
[11] = 1000 mg, eplerenone 1000 mg Dose, Single Dose

In the case of `COC(=O)C1CC2=CC(=O)CCC2(C)C23OC2CC2(C)C(CC[C@@]24CCC(=O)O4)C13` (stereo partly drawn) [eplerenone, methyl hydrogen 9,11α-epoxy-17α-hydroxy-3-oxopregn-4-ene-7α,21-dicarboxylate, γ-lactone], the “share of urinary and fecal radioactivity due to eplerenone” value [1, 4] is reported as “less than 15%”, the “urinary radioactivity excreted within the first 24 hours” value [1, 4] is reported as “Over 90%” and the “dose excreted as total radioactivity in feces” value [1, 5] is reported as 32.0%. For the same compound, the “dose excreted as total radioactivity in urine” value [1, 5] was 66.6%, the “dose excreted in feces as the named form” value [1, 5] was 0.807% and the “dose excreted in urine as the named form” value [1, 5] was 1.65%. For the same compound, the “total radioactivity in the breath” value ([1]; any time point, any subject) was “no detectable concentrations”, the “effect of high-fat meal on AUC0-96” value ([2]; 100 mg capsule, fed vs fasted) was “minimal or no measurable effect” and the “effect of high-fat meal on Cmax” value ([2]; 100 mg capsule, fed vs fasted) was “reduction”. For the same compound, the “effect of high-fat meal on Tmax” value ([2]; 100 mg capsule, fed vs fasted) was “increase”, the “effect of high-fat meal on T½” value ([2]; 100 mg capsule, fed vs fasted) was “minimal or no measurable effect” and the concentration at 0.5 h ([2]; Fasted Conditions) was 1010 ng/mL. The concentration at 1 h ([2]; Fasted Conditions) was 1560 ng/mL, the concentration at 2 h ([2]; Fasted Conditions) was 1390 ng/mL and the concentration at 3 h ([2]; Fasted Conditions) was 1170 ng/mL. For the same compound, the concentration at 4 h ([2]; Fasted Conditions) was 955 ng/mL, the concentration at 6 h ([2]; Fasted Conditions) was 587 ng/mL and the concentration at 8 h ([2]; Fasted Conditions) was 388 ng/mL. The concentration at 28 h ([2]; Fasted Conditions) was 7.62 ng/mL, the concentration at 48 h ([2]; Fasted Conditions) was 0 ng/mL and the concentration at 72 h ([2]; Fasted Conditions) was 0 ng/mL. It also gave a concentration at 12 h ([2]; Fasted Conditions) of 151 ng/mL, a concentration at 16 h ([2]; Fasted Conditions) of 68.8 ng/mL and a concentration at 24 h ([2]; Fasted Conditions) of 17.7 ng/mL. The concentration at 32 h ([2]; Fasted Conditions) was 3.28 ng/mL, the concentration at -0.5 h ([2]; Fasted Conditions) was 0 ng/mL and the concentration at 0.5 h ([2]; High Fat Breakfast) was 71.2 ng/mL. For the same compound, the concentration at 1 h ([2]; High Fat Breakfast) was 366 ng/mL, the concentration at 2 h ([2]; High Fat Breakfast) was 712 ng/mL and the concentration at 3 h ([2]; High Fat Breakfast) was 1040 ng/mL. For the same compound, the concentration at 4 h ([2]; High Fat Breakfast) was 1240 ng/mL, the concentration at 6 h ([2]; High Fat Breakfast) was 946 ng/mL and the concentration at 8 h ([2]; High Fat Breakfast) was 673 ng/mL. It also gave a concentration at 28 h ([2]; High Fat Breakfast) of 21.7 ng/mL, a concentration at 48 h ([2]; High Fat Breakfast) of 1.91 ng/mL and a concentration at 72 h ([2]; High Fat Breakfast) of 0 ng/mL. The concentration at 12 h ([2]; High Fat Breakfast) was 282 ng/mL, the concentration at 16 h ([2]; High Fat Breakfast) was 130 ng/mL and the concentration at 24 h ([2]; High Fat Breakfast) was 39 ng/mL. For the same compound, the concentration at 32 h ([2]; High Fat Breakfast) was 7.51 ng/mL, the concentration at -0.5 h ([2]; High Fat Breakfast) was 0 ng/mL and the “dose proportionality of plasma concentrations and dose-adjusted AUC” value ([3]; 100 mg to 1000 mg, single or multiple doses) was “lack of dose proportionality”. The “plasma concentrations at 24 hours postdose” value ([3]; all dosing groups (100, 300, 1000 mg)) was “detectable”, the AUC [3, 6] was 11800 ng·h/mL and the Cmax [3, 6] was 1900 ng/mL. It also gave a Tmax [3, 6] of 1.1 h, a half-life [3, 6] of 4 h and an AUC [3, 7] of 11300 ng·h/mL. It also gave a Cmax [3, 7] of 1750 ng/mL, a Tmax [3, 7] of 1.8 h and a half-life [3, 7] of 3.9 h. For the same compound, the AUC [3, 8] was 26500 ng·h/mL, the Cmax [3, 8] was 3580 ng/mL and the Tmax [3, 8] was 1.8 h. For the same compound, the half-life [3, 8] was 4.6 h, the AUC [3, 9] was 23900 ng·h/mL and the Cmax [3, 9] was 3230 ng/mL. The Tmax [3, 9] was 2.4 h, the half-life [3, 9] was 4.6 h and the AUC [3, 10] was 63200 ng·h/mL. It also gave a Cmax [3, 10] of 7390 ng/mL, a Tmax [3, 10] of 1.4 h and a half-life [3, 10] of 6.2 h. It also gave an AUC [3, 11] of 62100 ng·h/mL, a Cmax [3, 11] of 6880 ng/mL and a Tmax [3, 11] of 2 h. The half-life [3, 11] was 8.7 h, the accumulation ([3]; once a day for 11 days) was “no significant or dose-related accumulation” and the “Plasma Renin Active Mean Change From Baseline” value (renin and aldosterone; 25 mg BID) was 1.2 mU/L. The “Serum Aldosterone Mean Change From Baseline” value (renin and aldosterone; 25 mg BID) was 7.3 ng/dL, the “Plasma Renin Active Mean Change From Baseline” value (renin and aldosterone; 50 mg BID) was 15.0 mU/L and the “Serum Aldosterone Mean Change From Baseline” value (renin and aldosterone; 50 mg BID) was 10.0 ng/dL. For the same compound, the “Plasma Renin Active Mean Change From Baseline” value (renin and aldosterone; 50 mg QD) was 2.9 mU/L, the “Serum Aldosterone Mean Change From Baseline” value (renin and aldosterone; 50 mg QD) was 6.0 ng/dL and the “Plasma Renin Active Mean Change From Baseline” value (renin and aldosterone; 100 mg QD) was 13.9 mU/L. The “Serum Aldosterone Mean Change From Baseline” value (renin and aldosterone; 100 mg QD) was 10.5 ng/dL, the “Plasma Renin Active Mean Change From Baseline” value (renin and aldosterone; 200 mg BID) was 32.0 mU/L and the “Serum Aldosterone Mean Change From Baseline” value (renin and aldosterone; 200 mg BID) was 32.8 ng/dL. For the same compound, the “Plasma Renin Active Mean Change From Baseline” value (renin and aldosterone; 400 mg QD) was 21.2 mU/L, the “Serum Aldosterone Mean Change From Baseline” value (renin and aldosterone; 400 mg QD) was 19.2 ng/dL and the “aldosterone compared to placebo” value (renin and aldosterone; eight weeks of dosing) was “increases”. For the same compound, the “total and active renin levels” value (renin and aldosterone; eight weeks of dosing) was “increases”.
